In ChEMBL document CHEMBL1144119, “1',2',3',4'-tetradehydrotubulosine, a cytotoxic alkaloid from Pogonopus speciosus” (1999):
≈ marks a conversion by molar mass, not a printed value.

Key:
Type in all cases: functional
[1] = Cytotoxicity against human BC1 cells; details: read-out: ED50 (the source's name)
Lu1 = assay: Cytotoxicity against human Lu1 cells; details: read-out: ED50 (the source's name)
Col2 = assay: Cytotoxicity against human Col2 cells; details: read-out: ED50 (the source's name)
KB [2] = assay: Cytotoxicity against human KB cells; details: read-out: ED50 (the source's name)
KB [3] = assay: Cytotoxicity against human multidrug resistant KB cells in presence of vinblastine; details: read-out: ED50 (the source's name)
KB [4] = assay: Cytotoxicity against human multidrug resistant KB cells in absence of vinblastine; details: read-out: ED50 (the source's name)
LNCaP = assay: Cytotoxicity against human LNCAP cells; details: read-out: ED50 (the source's name)
SW626 = assay: Cytotoxicity against human SW626 cells; details: read-out: ED50 (the source's name)
SK-N-SH = assay: Cytotoxicity against human SK-N-SH cells; details: read-out: ED50 (the source's name)
M109 = assay: Cytotoxicity against mouse M109 cells; details: read-out: ED50 (the source's name)
L1210 = assay: In vivo antitumor activity against mouse L1210 cells assessed as increase in life span at 2 mg/kg
P388 = assay: In vivo antitumor activity against mouse P388 cells assessed as increase in life span at 2 mg/kg

In the case of `CC[C@H]1CN2CCc3cc(OC)c(OC)cc3[C@@H]2C[C@@H]1Cc1nccc2c1[nH]c1ccc(O)cc12`, the EC50 [1] is reported as 3.9 µg/mL (≈ 8.27 µM), the EC50 (Lu1) is reported as 3.6 µg/mL (≈ 7.63 µM) and the EC50 (Col2) is reported as 2.8 µg/mL (≈ 5.94 µM). For the same compound, the EC50 (KB [2]) was 2.2 µg/mL (≈ 4.66 µM), the EC50 (KB [3]) was 9 µg/mL and the EC50 (KB [4]) was 8.8 µg/mL (≈ 18.7 µM). The EC50 (LNCaP) was 6.8 µg/mL (≈ 14.4 µM), the EC50 (SW626) was 6.1 µg/mL (≈ 12.9 µM) and the EC50 (SK-N-SH) was 4 µg/mL (≈ 8.48 µM). The EC50 (M109) was 4.4 µg/mL (≈ 9.33 µM).

Work on `CC[C@H]1CN2CCc3cc(OC)c(OC)cc3[C@@H]2C[C@@H]1C[C@H]1NCCc2c1[nH]c1ccc(O)cc21` [TUBULOSINE] yielded an Activity (L1210) of 30%, an Activity (P388) of 80% and an EC50 [1] of 0.1 µg/mL (≈ 0.21 µM). For the same compound, the EC50 (Lu1) was less than 0.001 µg/mL, the EC50 (Col2) was 0.05 µg/mL (≈ 0.105 µM) and the EC50 (KB [2]) was less than 0.16 µg/mL. For the same compound, the EC50 (KB [3]) was 0.1 µg/mL, the EC50 (KB [4]) was 0.1 µg/mL (≈ 0.21 µM) and the EC50 (LNCaP) was less than 0.16 µg/mL. It also gave an EC50 (SW626) of 0.22 µg/mL (≈ 0.463 µM), an EC50 (SK-N-SH) of 0.1 µg/mL (≈ 0.21 µM) and an EC50 (M109) of 0.1 µg/mL (≈ 0.21 µM).

In the case of `CC[C@H]1CN2CCc3cc(OC)c(OC)cc3[C@@H]2C[C@@H]1CC1=NCCc2cc(O)c(OC)cc21` [PSYCHOTRINE], the EC50 [1] is reported as 3.4 µg/mL (≈ 7.32 µM), the EC50 (Lu1) is reported as 5.7 µg/mL (≈ 12.3 µM) and the EC50 (Col2) is reported as 4.5 µg/mL (≈ 9.69 µM). It also gave an EC50 (KB [2]) of 2.8 µg/mL (≈ 6.03 µM), an EC50 (KB [3]) of 9 µg/mL and an EC50 (KB [4]) of 9.4 µg/mL (≈ 20.2 µM). It also gave an EC50 (LNCaP) of 2.3 µg/mL (≈ 4.95 µM), an EC50 (SW626) of 13.3 µg/mL (≈ 28.6 µM) and an EC50 (SK-N-SH) of 4 µg/mL (≈ 8.61 µM). The EC50 (M109) was 9 µg/mL (≈ 19.4 µM).
